From US10766903B2 (ALMAC DISCOVERY LIMITED, priority 2016, dated 2020) come the findings set out here.

Structures are written as SMILES. pIC50: −log10 of the molar value. Values after ≈ are worked out from the molar mass of the structure shown.

For one data set, the system named is SJSA-1 cells. Put plainly: p53, p21 and MDM2 protein levels by western blotting in SJSA-1. It is filed as cell-based. Particulars: SJSA-1, 24 h treatment. As for the experimental part:
This osteosarcoma cell line with a known functional p53 pathway was used as a second model for these experiments. Cells were treated as described above and samples analysed by western blotting as indicated. Similar observations were made with stabilisation of p53, p21 induction and MDM2 decreased levels in a concentration dependent manner.
p53, p21 and MDM2 Protein Levels

The subject of another data set is HCT116 cells. Put plainly: p53, p21 and MDM2 protein levels by western blotting in HCT116. The format is cell-based. Particulars: HCT116, 24 h treatment.
For a further data set, the target named is USP7 (Homo sapiens (Human), UniProt Q93009). Put plainly: USP7 fluorescence polarisation (FP) biochemical assay, ubiquitin-Lys-TAMRA substrate. Particulars: Table 4, biochemical assay; average of at least duplicate experiments; read-out: USP7 IC50. The gist of the method:
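Full-length His6-USP7 (2.5 nM) incubated ± inhibitor (8-point dilutions, 200 to 0.1 μM before addition) in 50 mM HEPES pH 7.2, 150 mM NaCl, 0.5 mM EDTA, 5 mM DTT, 0.05% BSA, 0.05% CHAPS. Ubiquitin-Lys-TAMRA cleavage followed by FP (ex 530/em 575 nm) every 15 min for 1.5 h; normalised to no-compound control.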

A short description of another data set: Kinetic solubility assay. The format is physicochemical. The note with it: PBS buffer pH 7.4 with 2% DMSO, aqueous buffer, kinetic from dmso stock, PBS buffer pH 7.4, 2% DMSO, RT, read-out: KSol. As for the experimental part: Samples were prepared by adding 4 μL of the 10 mM compound DMSO stock solutions into 196 μL of PBS buffer pH 7.4 in the 96 well filter plates, yielding a compound concentration of 200 μM and 2% DMSO. The PBS buffer pH7.4 was prepared by Genentech media lab. Filter plates were sealed with aluminum sealing film and shaken at RT at 1000 rpm. After 24 h, the solutions were filtered into a clean 96 well plates utilizing a vacuum manifold. After filtration, some precipitate was often observed at the bottom of the filtration plate wells. Most of the precipitates appeared to be crystalline under a polarizing light microscope. […]
Samples were detected and analyzed using UV 254 nm and CLND. UV 254 nm is used primarily to confirm the sample purity but in rare cases, is also used to quantify the concentration of compounds with no nitrogens, where additional work was done to create a compound specific calibration curve. […] Sample quantification was accomplished by CLND peak intensity, the calibration curve, and the number of nitrogen contained in the compound. One calibration curve of caffeine was used for solubility quantitative determination. […] The number of nitrogens in a compound used for this quantification needs to be corrected for the actual configuration of the nitrogen in the compound. […]

Chain of USP7 (Q93009 whole entry): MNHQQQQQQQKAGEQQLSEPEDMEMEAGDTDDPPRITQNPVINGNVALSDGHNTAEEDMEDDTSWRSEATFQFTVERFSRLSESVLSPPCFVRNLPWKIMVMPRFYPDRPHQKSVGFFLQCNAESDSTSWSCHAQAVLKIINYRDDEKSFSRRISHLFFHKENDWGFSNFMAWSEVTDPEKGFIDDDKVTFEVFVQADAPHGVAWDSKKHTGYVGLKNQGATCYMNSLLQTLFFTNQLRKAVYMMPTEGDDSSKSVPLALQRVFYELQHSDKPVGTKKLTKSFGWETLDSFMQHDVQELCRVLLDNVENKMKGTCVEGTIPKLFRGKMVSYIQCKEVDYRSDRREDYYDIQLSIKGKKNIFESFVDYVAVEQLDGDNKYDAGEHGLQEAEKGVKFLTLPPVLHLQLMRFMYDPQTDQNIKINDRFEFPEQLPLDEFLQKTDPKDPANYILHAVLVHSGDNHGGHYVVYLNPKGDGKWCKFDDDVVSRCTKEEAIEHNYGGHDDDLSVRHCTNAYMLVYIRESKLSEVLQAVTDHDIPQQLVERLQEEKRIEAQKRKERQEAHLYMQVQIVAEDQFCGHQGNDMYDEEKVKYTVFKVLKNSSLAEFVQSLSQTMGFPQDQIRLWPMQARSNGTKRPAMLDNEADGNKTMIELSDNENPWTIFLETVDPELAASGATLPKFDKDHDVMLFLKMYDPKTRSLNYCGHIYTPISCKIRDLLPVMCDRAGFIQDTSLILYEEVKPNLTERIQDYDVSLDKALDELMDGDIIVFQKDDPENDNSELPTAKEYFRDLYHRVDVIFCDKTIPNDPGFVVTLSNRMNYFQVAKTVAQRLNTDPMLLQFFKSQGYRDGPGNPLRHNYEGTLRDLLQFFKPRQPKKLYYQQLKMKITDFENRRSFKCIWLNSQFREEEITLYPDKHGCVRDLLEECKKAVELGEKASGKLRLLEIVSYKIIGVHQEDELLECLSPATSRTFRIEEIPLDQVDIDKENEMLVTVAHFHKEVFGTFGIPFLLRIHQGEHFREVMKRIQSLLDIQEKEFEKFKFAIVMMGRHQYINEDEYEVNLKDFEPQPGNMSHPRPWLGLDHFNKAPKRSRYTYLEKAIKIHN

Regarding `C[C@H](CC(=O)N1CCC(O)(Cn2cnc3c(-c4cccc(N)c4)n(C)nc3c2=O)CC1)c1ccccc1` [Example 29, (R)-3-(3-Aminophenyl)-6-((4-hydroxy-1-(3-phenylbutanoyl)piperidin-4-yl)methyl)-2-methyl-2H-pyrazolo[4,3-d]pyrimidin-7(6H)-one], the “p53, p21 and MDM2 protein levels” value is “dose-dependent p53 stabilisation, p21 induction and concomitant decrease in MDM2 levels” in the data set on SJSA-1 cells; “dose-dependent p53 stabilisation, p21 induction and concomitant decrease in MDM2 levels” in the data set on HCT116 cells.

Take `CC1(C(=O)N2CCC(O)(Cn3cnc4c(cc(Cl)n4-c4ccccc4)c3=O)CC2)CC1` [Example 200, 6-Chloro-3-((4-hydroxy-1-(1-methylcyclopropanecarbonyl)piperidin-4-yl)methyl)-7-phenyl-3H-pyrrolo[2,3-d]pyrimidin-4(7H)-one]: the pIC50 at USP7 is 6.00 to 6.60. In the data set “Kinetic solubility assay”, the solubility kinetic at 24 h was determined as 173 µM (≈ 76.3 µg/mL).
